Patent US12268674B2, “Mi-2β inhibitor as an immunotherapy agent” (BioVentures, LLC, priority 2021, dated 2025)

Key:
Assay in all cases: ATPase profile (ATP acyl phosphate probe)
Assay type in all cases: binding
ABCC1 = molecular target: T1, ABCC1 (Homo sapiens, UniProt P33527)
T1 construct: to get the native cell lysate; host or cells: A375 cell lysate

ABCC10 = molecular target: T2, ABCC10 (Homo sapiens, UniProt Q5T3U5); details: ABCC10, SEQ ID NO: 7, ATP BS
T2 construct: to get the native cell lysate; host or cells: A375 cell lysate

ABCF3 = molecular target: T3, ABCF3 (Homo sapiens, UniProt Q9NUQ8); details: ABCF3, SEQ ID NO: 19, ATP BS
T3 construct: to get the native cell lysate; host or cells: A375 cell lysate

AHCY = molecular target: T4, AHCY (Homo sapiens, UniProt P23526); details: SEQ ID NO: 30, ATP BS
T4 construct: to get the native cell lysate; host or cells: A375 cell lysate

ALDH16A1 = molecular target: T5, ALDH16A1 (Homo sapiens, UniProt Q8IZ83); details: ALDH16A1, SEQ ID NO: 38, ATP BS
T5 construct: to get the native cell lysate; host or cells: A375 cell lysate

CCT5 = molecular target: T6, CCT5 (Homo sapiens, UniProt P48643); details: CCT5, SEQ ID NO: 54, ATP BS
T6 construct: to get the native cell lysate; host or cells: A375 cell lysate

CLPB = molecular target: T7, CLPB (Homo sapiens, UniProt Q9H078); details: SEQ ID NO: 58, ATP BS
T7 construct: endogenous in cells; host or cells: A375 cell lysate

CNP = molecular target: T8, CNP (Homo sapiens, UniProt P09543); details: SEQ ID NO: 61, ATP BS
T8 construct: endogenous in cells; host or cells: A375 cell lysate

FDPS = molecular target: T9, FDPS (Homo sapiens, UniProt P14324); details: SEQ ID NO: 78, ATP BS
T9 construct: endogenous in cells; host or cells: A375 cell lysate

GATB = molecular target: T10, GATB (Homo sapiens, UniProt O75879)
T10 construct: endogenous in cells; host or cells: A375 cell lysate
T10 sequence (O75879 31-557): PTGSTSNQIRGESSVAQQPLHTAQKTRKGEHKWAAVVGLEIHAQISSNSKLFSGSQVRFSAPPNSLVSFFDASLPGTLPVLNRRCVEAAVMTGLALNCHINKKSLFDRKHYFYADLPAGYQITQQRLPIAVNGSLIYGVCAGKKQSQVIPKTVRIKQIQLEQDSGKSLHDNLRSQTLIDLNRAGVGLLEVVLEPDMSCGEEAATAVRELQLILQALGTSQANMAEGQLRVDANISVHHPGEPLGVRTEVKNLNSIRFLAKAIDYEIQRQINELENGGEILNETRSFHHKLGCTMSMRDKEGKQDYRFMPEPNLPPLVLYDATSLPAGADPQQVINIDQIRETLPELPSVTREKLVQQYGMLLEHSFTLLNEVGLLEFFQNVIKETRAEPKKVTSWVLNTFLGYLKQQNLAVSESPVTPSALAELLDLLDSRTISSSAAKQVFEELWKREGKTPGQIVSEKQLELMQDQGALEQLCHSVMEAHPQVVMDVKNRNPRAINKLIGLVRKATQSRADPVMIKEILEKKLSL
T10 sequence (Q9H0R6 whole entry partner): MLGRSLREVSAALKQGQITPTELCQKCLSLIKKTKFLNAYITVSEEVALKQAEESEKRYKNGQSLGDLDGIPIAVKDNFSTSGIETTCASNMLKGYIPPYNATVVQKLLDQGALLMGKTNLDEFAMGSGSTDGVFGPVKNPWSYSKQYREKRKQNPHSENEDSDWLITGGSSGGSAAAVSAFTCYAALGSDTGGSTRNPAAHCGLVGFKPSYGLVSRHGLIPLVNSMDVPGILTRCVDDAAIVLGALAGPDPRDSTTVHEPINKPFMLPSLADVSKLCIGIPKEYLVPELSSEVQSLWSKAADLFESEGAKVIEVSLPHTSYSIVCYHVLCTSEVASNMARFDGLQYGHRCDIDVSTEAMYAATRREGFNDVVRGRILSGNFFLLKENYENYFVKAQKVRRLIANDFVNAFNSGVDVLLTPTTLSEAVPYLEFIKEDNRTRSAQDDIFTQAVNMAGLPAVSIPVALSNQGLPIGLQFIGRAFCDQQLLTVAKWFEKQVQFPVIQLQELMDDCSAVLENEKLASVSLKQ
T10 sequence (O43716 58-136 partner): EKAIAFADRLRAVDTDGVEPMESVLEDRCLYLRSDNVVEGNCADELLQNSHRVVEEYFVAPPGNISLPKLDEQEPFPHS

GMPS = molecular target: T11, GMPS (Homo sapiens, UniProt P49915)
T11 construct: endogenous in cells; host or cells: A375 cell lysate
T11 sequence (P49915 whole entry): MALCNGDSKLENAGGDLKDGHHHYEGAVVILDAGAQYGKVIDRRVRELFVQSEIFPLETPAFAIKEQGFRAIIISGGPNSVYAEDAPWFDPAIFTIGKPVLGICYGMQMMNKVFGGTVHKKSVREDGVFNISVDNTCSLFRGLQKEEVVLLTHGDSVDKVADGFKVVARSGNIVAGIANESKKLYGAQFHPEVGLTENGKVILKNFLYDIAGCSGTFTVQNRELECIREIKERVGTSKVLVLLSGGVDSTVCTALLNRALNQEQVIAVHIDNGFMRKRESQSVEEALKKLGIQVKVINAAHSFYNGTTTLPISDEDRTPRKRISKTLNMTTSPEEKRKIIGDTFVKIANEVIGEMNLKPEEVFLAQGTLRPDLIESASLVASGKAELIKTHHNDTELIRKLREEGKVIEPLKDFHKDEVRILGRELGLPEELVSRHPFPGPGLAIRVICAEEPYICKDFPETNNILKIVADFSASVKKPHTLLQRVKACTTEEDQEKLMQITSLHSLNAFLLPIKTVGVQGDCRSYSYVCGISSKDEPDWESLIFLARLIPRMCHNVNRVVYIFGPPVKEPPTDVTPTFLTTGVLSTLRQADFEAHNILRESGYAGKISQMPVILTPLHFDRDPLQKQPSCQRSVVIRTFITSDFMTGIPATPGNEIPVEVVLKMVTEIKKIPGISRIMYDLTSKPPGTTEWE

HSP60 = molecular target: T12, HSP60 (Homo sapiens, UniProt P10809); details: HSP60, SEQ ID NO: 94, ATP BS
T12 construct: to get the native cell lysate; endogenous in cells; host or cells: A375

LIG1 = molecular target: T13, LIG1 (Homo sapiens, UniProt P18858); details: LIG1, SEQ ID NO: 114, ATP BS
T13 construct: to get the native cell lysate; endogenous in cells; host or cells: A375

LONP1 = molecular target: T14, LONP1 (Homo sapiens, UniProt P36776); details: LONP1, SEQ ID NO: 115, labeling site Other
T14 construct: to get the native cell lysate; endogenous in cells; host or cells: A375

MDN1 = molecular target: T15, MDN1 (Homo sapiens, UniProt Q9NU22); details: MDN1, SEQ ID NO: 121, ATP BS
T15 construct: to get the native cell lysate; endogenous in cells; host or cells: A375

MTHFD1L = molecular target: T16, MTHFD1L (Homo sapiens, UniProt Q6UB35); details: SEQ ID NO: 126, ATP BS
T16 construct: to get the native cell lysate; endogenous in cells; host or cells: A375

NADK2 = molecular target: T17, NADK2 (Homo sapiens, UniProt Q4G0N4); details: NADK2, SEQ ID NO: 129, ATP BS
T17 construct: to get the native cell lysate; endogenous in cells; host or cells: A375

NTPCR = molecular target: T18, NTPCR (Homo sapiens, UniProt Q9BSD7); details: SEQ ID NO: 141, ATP BS
T18 construct: to get the native cell lysate; endogenous in cells; host or cells: A375

NUDT7 = molecular target: T19, NUDT7 (Homo sapiens, UniProt P0C024); details: NUDT7, SEQ ID NO: 147, ATP BS
T19 construct: to get the native cell lysate; endogenous in cells; host or cells: A375

PAICS = molecular target: T20, PAICS (Homo sapiens, UniProt P22234); details: SEQ ID NO: 151, ATP BS
T20 construct: to get the native cell lysate; endogenous in cells; host or cells: A375

PCCA = molecular target: T21, PCCA (Homo sapiens, UniProt P05165)
T21 construct: to get the native cell lysate; endogenous in cells; host or cells: A375
T21 sequence (P05165 53-728): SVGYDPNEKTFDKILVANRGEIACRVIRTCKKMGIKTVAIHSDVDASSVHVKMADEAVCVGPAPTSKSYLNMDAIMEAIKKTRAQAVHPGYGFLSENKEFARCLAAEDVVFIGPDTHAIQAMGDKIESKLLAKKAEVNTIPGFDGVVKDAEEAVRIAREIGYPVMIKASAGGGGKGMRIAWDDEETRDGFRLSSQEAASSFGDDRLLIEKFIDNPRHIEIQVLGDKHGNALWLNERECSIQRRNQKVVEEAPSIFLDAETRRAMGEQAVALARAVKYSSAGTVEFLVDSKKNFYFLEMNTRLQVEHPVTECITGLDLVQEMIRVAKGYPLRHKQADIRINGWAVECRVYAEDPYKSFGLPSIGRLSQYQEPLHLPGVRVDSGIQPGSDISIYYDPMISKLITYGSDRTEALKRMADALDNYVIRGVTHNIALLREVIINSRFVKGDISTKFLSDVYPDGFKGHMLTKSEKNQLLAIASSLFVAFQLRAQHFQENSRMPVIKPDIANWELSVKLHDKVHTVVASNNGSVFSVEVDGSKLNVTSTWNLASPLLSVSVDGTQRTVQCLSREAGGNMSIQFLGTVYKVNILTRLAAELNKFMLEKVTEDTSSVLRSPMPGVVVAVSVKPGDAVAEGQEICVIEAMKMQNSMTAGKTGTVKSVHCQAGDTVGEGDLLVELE
T21 sequence (P05166 29-539 partner): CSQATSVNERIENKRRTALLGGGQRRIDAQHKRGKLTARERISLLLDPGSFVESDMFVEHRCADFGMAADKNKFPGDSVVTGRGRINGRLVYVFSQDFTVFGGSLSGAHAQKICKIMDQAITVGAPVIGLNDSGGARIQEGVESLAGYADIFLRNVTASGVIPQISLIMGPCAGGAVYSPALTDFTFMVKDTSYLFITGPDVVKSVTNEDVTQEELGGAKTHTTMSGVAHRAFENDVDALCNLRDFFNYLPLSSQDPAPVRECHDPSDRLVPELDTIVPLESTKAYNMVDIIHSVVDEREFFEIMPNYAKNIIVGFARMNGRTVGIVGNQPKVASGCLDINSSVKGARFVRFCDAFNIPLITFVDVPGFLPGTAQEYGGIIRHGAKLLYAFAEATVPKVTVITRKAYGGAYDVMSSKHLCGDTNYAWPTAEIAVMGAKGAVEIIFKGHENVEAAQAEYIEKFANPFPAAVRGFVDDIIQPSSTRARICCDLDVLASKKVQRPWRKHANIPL

PFKFB2 = molecular target: T22, PFKFB2 (Homo sapiens, UniProt O60825); details: PFKFB2, SEQ ID NO: 158, ATP BS
T22 construct: to get the native cell lysate; endogenous in cells; host or cells: A375 cell lysate
T22 sequence (O60825 whole entry): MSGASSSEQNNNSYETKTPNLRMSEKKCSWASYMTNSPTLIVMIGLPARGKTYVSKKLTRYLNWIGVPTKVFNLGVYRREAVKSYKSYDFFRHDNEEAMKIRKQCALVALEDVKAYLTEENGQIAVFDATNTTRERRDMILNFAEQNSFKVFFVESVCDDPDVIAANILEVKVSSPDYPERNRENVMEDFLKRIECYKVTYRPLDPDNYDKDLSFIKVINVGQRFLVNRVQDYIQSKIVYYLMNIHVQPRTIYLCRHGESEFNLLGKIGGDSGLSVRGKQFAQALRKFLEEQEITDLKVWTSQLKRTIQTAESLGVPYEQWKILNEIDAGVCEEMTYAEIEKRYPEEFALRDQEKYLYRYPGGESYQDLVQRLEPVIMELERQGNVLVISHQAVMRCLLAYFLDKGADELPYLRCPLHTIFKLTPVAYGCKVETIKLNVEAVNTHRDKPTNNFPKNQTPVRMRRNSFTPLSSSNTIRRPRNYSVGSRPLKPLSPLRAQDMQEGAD

PSMC2 = PSMC2 (Homo sapiens, UniProt P35998); details: PSMC2, SEQ ID NO: 174, ATP BS
QARS = molecular target: T23, QARS (Homo sapiens, UniProt P47897); details: SEQ ID NO: 180, ATP BS
T23 construct: to get the native cell lysate; endogenous in cells; host or cells: A375 cell lysate

RFC4 = molecular target: T24, RFC4 (Homo sapiens, UniProt P35249); details: RFC4, SEQ ID NO: 185, ATP BS
T24 construct: to get the native cell lysate; endogenous in cells; host or cells: A375 cell lysate

SMC4 = molecular target: T25, SMC4 (Homo sapiens, UniProt Q9NTJ3); details: SMC4, SEQ ID NO: 195, ATP BS
T25 construct: to get the native cell lysate; endogenous in cells; host or cells: A375 cell lysate

SNRNP200 = molecular target: T26, SNRNP200 (Homo sapiens, UniProt O75643); details: SNRNP200, SEQ ID NO: 196, ATP BS
T26 construct: to get the native cell lysate; endogenous in cells; host or cells: A375 cell lysate

UBA5 = molecular target: T27, UBA5 (Homo sapiens, UniProt Q9GZZ9); details: UBA5, SEQ ID NO: 221, ATP BS
T27 construct: to get the native cell lysate; endogenous in cells; host or cells: A375 cell lysate

XRCC3 = molecular target: T28, XRCC3 (Homo sapiens, UniProt O43542); details: XRCC3, SEQ ID NO: 230, ATP BS
T28 construct: to get the native cell lysate; endogenous in cells; host or cells: A375 cell lysate

XRCC5 = molecular target: T29, XRCC5 (Homo sapiens, UniProt P13010); details: XRCC5, SEQ ID NO: 231, ATP BS
T29 construct: to get the native cell lysate; endogenous in cells; host or cells: A375 cell lysate

T1 sequence (P33527 whole entry): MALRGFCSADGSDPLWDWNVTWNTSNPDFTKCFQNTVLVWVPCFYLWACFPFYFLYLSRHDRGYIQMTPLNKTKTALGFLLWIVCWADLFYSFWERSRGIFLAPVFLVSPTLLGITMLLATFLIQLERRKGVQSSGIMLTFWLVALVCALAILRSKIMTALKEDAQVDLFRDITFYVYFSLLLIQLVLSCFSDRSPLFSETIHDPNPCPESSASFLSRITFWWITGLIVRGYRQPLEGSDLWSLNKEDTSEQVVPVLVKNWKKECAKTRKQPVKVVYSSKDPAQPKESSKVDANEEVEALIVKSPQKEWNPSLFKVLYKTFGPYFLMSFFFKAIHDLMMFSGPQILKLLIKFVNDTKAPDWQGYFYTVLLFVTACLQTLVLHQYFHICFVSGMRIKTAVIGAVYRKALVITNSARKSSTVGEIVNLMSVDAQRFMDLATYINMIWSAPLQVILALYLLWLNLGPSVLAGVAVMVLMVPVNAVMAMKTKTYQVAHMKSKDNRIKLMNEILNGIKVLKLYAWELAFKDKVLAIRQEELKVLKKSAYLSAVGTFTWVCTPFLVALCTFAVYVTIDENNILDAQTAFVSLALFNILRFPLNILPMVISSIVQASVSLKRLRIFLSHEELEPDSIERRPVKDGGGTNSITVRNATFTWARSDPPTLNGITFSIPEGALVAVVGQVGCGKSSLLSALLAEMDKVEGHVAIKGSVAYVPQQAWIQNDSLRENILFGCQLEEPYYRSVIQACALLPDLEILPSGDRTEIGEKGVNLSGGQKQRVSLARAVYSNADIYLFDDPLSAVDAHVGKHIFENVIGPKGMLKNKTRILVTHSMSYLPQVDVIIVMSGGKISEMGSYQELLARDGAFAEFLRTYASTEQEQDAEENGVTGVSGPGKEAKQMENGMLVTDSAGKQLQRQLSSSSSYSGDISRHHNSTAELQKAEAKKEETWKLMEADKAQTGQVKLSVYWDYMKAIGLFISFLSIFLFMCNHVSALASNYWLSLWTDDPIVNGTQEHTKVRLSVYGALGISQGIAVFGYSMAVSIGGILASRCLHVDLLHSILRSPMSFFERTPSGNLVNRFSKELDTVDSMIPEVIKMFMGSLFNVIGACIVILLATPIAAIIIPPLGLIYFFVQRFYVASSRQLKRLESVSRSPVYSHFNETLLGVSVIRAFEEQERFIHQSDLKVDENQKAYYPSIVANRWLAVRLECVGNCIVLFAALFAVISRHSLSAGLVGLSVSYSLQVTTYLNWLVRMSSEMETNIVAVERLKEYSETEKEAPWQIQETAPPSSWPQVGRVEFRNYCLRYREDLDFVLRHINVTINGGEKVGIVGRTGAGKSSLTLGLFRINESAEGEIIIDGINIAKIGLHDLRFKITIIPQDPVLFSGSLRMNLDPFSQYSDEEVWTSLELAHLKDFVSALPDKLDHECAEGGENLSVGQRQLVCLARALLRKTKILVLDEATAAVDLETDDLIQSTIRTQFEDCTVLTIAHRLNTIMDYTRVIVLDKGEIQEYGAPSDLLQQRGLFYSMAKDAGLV

`Cn1c(=O)[nH]c2ccc(-c3cccc(C(=O)NC4CCn5ccnc5C4)c3)cc21` (stereo not shown) [Z36-MP5, 3-(3-methyl-2-oxo-2,3-dihydro-1H-benzo[d]imidazol-5-yl)-N-(5,6,7,8-tetrahydroimidazo[1,2-a]pyridin-7-yl)benzamide] was tested, and the “Inhibition (%) by 1 μM Z36-MP5” value (ABCC1; ABCC1, SEQ ID NO: 5, ATP BS) was −0.23%, the “Inhibition (%) by 1 μM Z36-MP5” value (ABCC1; ABCC1, SEQ ID NO: 6, ATP BS) was −7.84% and the “Inhibition (%) by 1 μM Z36-MP5” value (ABCC10) was −3.83%. For the same compound, the “Inhibition (%) by 1 μM Z36-MP5” value (ABCF3) was 5.45%, the “Inhibition (%) by 1 μM Z36-MP5” value (AHCY) was −10.85% and the “Inhibition (%) by 1 μM Z36-MP5” value (ALDH16A1) was −1.13%. For the same compound, the “Inhibition (%) by 1 μM Z36-MP5” value (CCT5) was −2.48%, the “Inhibition (%) by 1 μM Z36-MP5” value (CLPB) was −9.00% and the “Inhibition (%) by 1 μM Z36-MP5” value (CNP) was −17.28%. For the same compound, the “Inhibition (%) by 1 μM Z36-MP5” value (FDPS) was 29.13%, the “Inhibition (%) by 1 μM Z36-MP5” value (GATB; SEQ ID NO: 83, ATP BS) was −15.35% and the “Inhibition (%) by 1 μM Z36-MP5” value (GATB; SEQ ID NO: 84, ATP BS) was −4.32%. For the same compound, the “Inhibition (%) by 1 μM Z36-MP5” value (GMPS; SEQ ID NO: 85, labeling site Other) was −13.99%, the “Inhibition (%) by 1 μM Z36-MP5” value (GMPS; SEQ ID NO: 86, labeling site Other) was 14.54% and the “Inhibition (%) by 1 μM Z36-MP5” value (HSP60) was 11.39%. For the same compound, the “Inhibition (%) by 1 μM Z36-MP5” value (LIG1) was −7.76%, the “Inhibition (%) by 1 μM Z36-MP5” value (LONP1) was 1.81% and the “Inhibition (%) by 1 μM Z36-MP5” value (MDN1) was 3.28%. The “Inhibition (%) by 1 μM Z36-MP5” value (MTHFD1L) was 1.16%, the “Inhibition (%) by 1 μM Z36-MP5” value (NADK2) was −11.03% and the “Inhibition (%) by 1 μM Z36-MP5” value (NTPCR) was −14.99%. The “Inhibition (%) by 1 μM Z36-MP5” value (NUDT7) was 19.75%, the “Inhibition (%) by 1 μM Z36-MP5” value (PAICS) was 19.51% and the “Inhibition (%) by 1 μM Z36-MP5” value (PCCA; SEQ ID NO: 153, ATP BS) was −5.50%. For the same compound, the “Inhibition (%) by 1 μM Z36-MP5” value (PCCA; SEQ ID NO: 154, ATP BS) was −10.70%, the “Inhibition (%) by 1 μM Z36-MP5” value (PFKFB2) was 14.74% and the “Inhibition (%) by 1 μM Z36-MP5” value (PSMC2) was −6.44%. For the same compound, the “Inhibition (%) by 1 μM Z36-MP5” value (QARS) was −7.77%, the “Inhibition (%) by 1 μM Z36-MP5” value (RFC4) was −6.66% and the “Inhibition (%) by 1 μM Z36-MP5” value (SMC4) was −7.11%. The “Inhibition (%) by 1 μM Z36-MP5” value (SNRNP200) was −14.27%, the “Inhibition (%) by 1 μM Z36-MP5” value (UBA5) was −12.85% and the “Inhibition (%) by 1 μM Z36-MP5” value (XRCC3) was −4.81%. For the same compound, the “Inhibition (%) by 1 μM Z36-MP5” value (XRCC5) was 2.24%.
